These results are taken from patent US6376510B1, “Neuromuscular relaxants” (Newlaxant LLC, priority 1997, dated 2002).

As usually defined, the ED50 is the dose that gives a 50% effect, or the effect in half of the subjects.

Data set [1] relates to anesthetized rats (evoked responses of anterior tibial muscle). Briefly: In vivo neuromuscular block and cardiovascular side effects, anesthetized rat (Example 8, Table 3). The following applies: for Onset: time to 80-85% neuromuscular block. In a few lines:
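Pentobarbital-anesthetized (i.p.), ventilated adult male rats given saline-dissolved agents i.v.; anterior tibial EMG responses to supramaximal single or train-of-four sciatic/peroneal stimuli, plus 0.1 or 1 Hz stimulation. Doses for 50%, 80%, 90% block derived. Onset: minutes to 80-85% block; RI: 25-75% spontaneous recovery; vagal block, heart rate and blood pressure changes (%) at 80-85% blocking dose.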

For another data set, the system named is rabbits. Briefly: In vivo neuromuscular block and cardiovascular side effects, rabbit (Example 8, Table 7). The conditions noted are these: for ED50: intravenous dose causing 50% neuromuscular block; for RI (recovery index): spontaneous recovery, 25-75% neuromuscular response; for Onset: time to 80-85% neuromuscular block.
Another data set relates to anesthetized monkeys. Put plainly: In vivo neuromuscular block and cardiovascular side effects, monkey (Example 8, Table 6). The conditions noted are these: for ED50: intravenous dose causing 50% neuromuscular block; for RI (recovery index): spontaneous recovery, 25-75% neuromuscular response; for Onset: time to 80-85% neuromuscular block. An excerpt: Both electromyographic and mechanomyographic responses can be quantified.
The techniques described under a) and b) were employed in other species as needed with the modification that juvenile pigs were initially anesthetized with inhalation of halothane (Table 5) and monkeys were initially sedated with intramuscular ketamine injections prior to inducing and maintaining general anesthesia using pentobarbital and propofol administered intravenously (Table 6).

Data set [2] concerns anesthetized cats (evoked responses of anterior tibial muscle). Briefly: animal or person. The following applies: for RI (recovery index): spontaneous recovery, 25-75% neuromuscular response; for Onset: time to 80-85% neuromuscular block. An excerpt: a) Adult, male albino rats were anesthetized with pentobarbital injected intraperitoneally. The trachea was cannulated for artificial respiration via a small animal respirator. The carotid artery was cannulated for recording blood pressure via a transducer and heart rate by a cardiotachograph on a polygraph. One external jugular vein was cannulated for i.v. drug administration. Neuromuscular function was monitored by electromyography, recording evoked responses from the anterior tibial muscle as a result of supramaximal nerve stimuli consisting of single or “train-of-four” rectangular pulses of 0.1-0.2 msec duration every 10-12 seconds, delivered to the sciatic or common peroneal nerve by a laboratory nerve stimulator. Another mode of stimulation included repeated single stimuli delivered at 0.1 Hz or 1 Hz. […] The agents were dissolved in physiologic saline and injected intravenously at appropriate time intervals. The intensity, onset, and duration of neuromuscular block and its type were determined with each agent. Through administering several doses, the doses corresponding to 50%, 80% and 90% neuromuscular block were determined. All agents were compared with selected standard neuromuscular blocking compounds, e.g. succinylcholine, pancuronium, mivacurium, or rocuronium.
Onset=time in minutes to 80-85% neuromuscular block.
RI=recovery index, minutes, spontaneous recovery, 25-75% neuromuscular response.
VB=vagal block, %, at 80-85% neuromuscular blocking dose.
ΔHR=change in heart rate, %, at 80-85% neuromuscular blocking dose.
ΔBP=change in arterial blood pressure, %, at 80-85% neuromuscular blocking dose.
b) Adult cats were anesthetized with a mixture of 70 mg/kg alpha chloralose and 0.5 g/kg ethylurethane intraperitoneally. One thigh was fixed in a vertical position by means of a pin at the lower end of the femur. Needle electrodes were placed on the sciatic or the common peroneal nerve. A tendon of the anterior tibial muscle was attached to a force transducer and the muscle responses evoked, as described under a), were recorded. Both electromyographic and mechanomyographic responses can be quantified. Blood pressure and heart rate changes were recorded from appropriately cannulated arteries via a blood pressure transducer and cardiotachograph.

For data set [3], the system named is anesthetized juvenile pigs. Briefly: animal or person. The following applies: pig; for ED50: intravenous dose causing 50% neuromuscular block; for VB (vagal block) / ΔBP (change in arterial blood pressure) / ΔH (change in heart rate): in vivo; for RI (recovery index): spontaneous recovery, 25-75% neuromuscular response; for Onset: time to 80-85% neuromuscular block. The format is in vivo. In a few lines:
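Electromyographic and mechanomyographic responses quantified. Monkeys sedated with intramuscular ketamine, then general anesthesia with intravenous pentobarbital and propofol; juvenile pigs induced with inhaled halothane.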

Setting [4] is: Oryctolagus cuniculus, read-out: ED50.
Setting [5] is: at 80-85% neuromuscular blocking dose.
Setting [6] is: rat, intravenous dose causing 50% neuromuscular block.
Where [7] appears, read: rat, spontaneous recovery, 25-75% neuromuscular response.
[8] abbreviates: rat, at 80-85% neuromuscular blocking dose.
The mark [9] stands for this setting: cat, at 80-85% neuromuscular blocking dose.

The structures appear in SMILES notation. Read-outs that look alike come from different tables or passages of the source.

Turning to `COc1ccc(CC2c3cc(OC)c(OC)cc3CC[N+]2(C)CCC(=O)OCCCCCOC(=O)CC[N+]2(C)CCc3cc(OC)c(OC)cc3C2Cc2ccc(OC)c(OC)c2)cc1OC` (stereo not drawn) [Atracurium, reference compound], the ED50 in data set [1] (Rattus norvegicus, iv) was 0.32 mg/kg; in the data set with rabbits (setting [4]) it was 0.03 mg/kg; in the data set on anesthetized monkeys (Primates, read-out: ED50) it was 0.186 mg/kg; in data set [2] (Felis catus, iv), 0.068 mg/kg. In data set [1] (male, rat, in vivo), the “VB (vagal block)” value is 0%. Also, the “ΔBP (change in arterial blood pressure)” value in data set [1] (male, rat, in vivo) is on record as 0%; with rabbits (setting [5]), 0%; in the data set with anesthetized monkeys (setting [5]), 0%; in data set [2] (cat, in vivo), 0%. For the same compound, the “ΔH (change in heart rate)” value in data set [1] (male, rat, in vivo) turned out to be 0%; with rabbits (setting [5]) it was 0%; with anesthetized monkeys (setting [5]) it was 0%; in data set [2] (cat, in vivo), 0%. Also, the “RI (recovery index)” value turned out to be 2.9 min in data set [1] (rat, in vivo); 5.7 min with rabbits; 7.5 min in the data set on anesthetized monkeys; 4.8 min in data set [2] (cat). In addition, the Onset turned out to be 1.5 min in data set [1] (rat), 2.7 min with rabbits, 3 min in the data set with anesthetized monkeys and 2.7 min in data set [2] (cat).
With `COc1cc2c(cc1OC)[C@@H](Cc1cc(OC)c(OC)c(OC)c1)[N+](C)(CCCOC(=O)CC/C=C/CCC(=O)OCCC[N+]1(C)CCc3cc(OC)c(OC)cc3[C@H]1Cc1cc(OC)c(OC)c(OC)c1)CC2` (stereo partly drawn) [Mivacurium, reference compound], the “VB (vagal block)” value amounted to 0% in data set [1] (male, rat, in vivo) and 17% in data set [3]. Moreover, the “ΔBP (change in arterial blood pressure)” value is given as 0% in data set [1] (male, rat, in vivo); 0% in the data set with rabbits (in vivo); 0% with anesthetized monkeys (in vivo); 0% in data set [3]; 0% in data set [2] (cat, in vivo). Also, the “ΔH (change in heart rate)” value is reported as 0% in data set [1] (male, rat, in vivo); 0% in the data set with rabbits (in vivo); 0% with anesthetized monkeys (in vivo); 0% in data set [3]; 0% in data set [2] (cat, in vivo). For the same compound, the ED50 in data set [1] (setting [6]) amounted to 0.14 mg/kg; with rabbits (setting [4]), 0.02 mg/kg; with anesthetized monkeys (Primates, read-out: ED50), 0.034 mg/kg; in data set [3] (Sus scrofa, read-out: ED50), 0.135 mg/kg; in data set [2] (cat, intravenous dose causing 50% neuromuscular block) it was 0.025 mg/kg. In addition, the “RI (recovery index)” value in data set [1] (setting [7]) is 3.9 min; in the data set with rabbits, 3.9 min; with anesthetized monkeys, 2.4 min; in data set [3] it was 3.6 min; in data set [2] (cat), 5 min. For the same compound, the Onset in data set [1] (rat) came to 1.8 min; in the data set on rabbits, 2.8 min; in the data set with anesthetized monkeys, 1.9 min; in data set [3] it was 1.5 min; in data set [2] (cat), 3.5 min.
Regarding `CC(=O)Oc1ccc(C[N+]2(C)C3CCCC2CC(OC(=O)CCCCCC(=O)OC2CC4CCCC(C2)[N+]4(C)Cc2ccc(OC(C)=O)c(OC(C)=O)c2)C3)cc1OC(C)=O.[Br-].[Br-]` (stereo not drawn) [bis[N-(3,4-diacetoxybenzyl)granataninium-3-yl]pimelate dibromide], the “VB (vagal block)” value in data set [1] (rat, in vivo) stood at 0%; in data set [3] it was 48%. In addition, the “ΔBP (change in arterial blood pressure)” value is 0% in data set [1] (rat, in vivo); 0% in the data set on rabbits (in vivo); 0% in the data set with anesthetized monkeys (in vivo); 0% in data set [3]. Besides, the “ΔH (change in heart rate)” value in data set [1] (rat, in vivo) turned out to be 0%; in the data set on rabbits (in vivo) it was 0%; with anesthetized monkeys (in vivo) it was 0%; in data set [3], 0%. For the same compound, the 50% effective dose (ED50) was 0.175 mg/kg in data set [1] (setting [6]), 0.266 mg/kg in the data set with rabbits, 0.15 mg/kg with anesthetized monkeys and 0.193 mg/kg in data set [3]. Moreover, the “RI (recovery index)” value was 0.4 min in data set [1] (setting [7]), 0.6 min in the data set with rabbits, 0.55 min with anesthetized monkeys and 1 min in data set [3]. Also, the Onset is 0.45 min in data set [1] (rat), 0.72 min with rabbits, 1.2 min with anesthetized monkeys and 0.7 min in data set [3].
With `COc1cc(C[N+]2(C)C3CCC2CC(OC(=O)C2C4C=CC(C4)C2C(=O)OC2CC4CCC(C2)[N+]4(C)Cc2cc(OC)c(OC(C)=O)c(OC)c2)C3)cc(OC)c1OC(C)=O.[Br-].[Br-]` (stereo not drawn) [bis[N-(4-acetoxy-3,5-dimethoxybenzyl)tropanium-3α-yl]trans-3,6-endomethylene-1,2,3,6-tetrahydrophthalate dibromide], the “VB (vagal block)” value came out at 20% in data set [1] (setting [8]) and 26% in data set [3]. Also, the “ΔBP (change in arterial blood pressure)” value (in data set [1] (setting [8]); in the data set on rabbits (in vivo); in data set [3]) was 0% each time. The “ΔH (change in heart rate)” value (in data set [1] (setting [8]); in the data set with rabbits (in vivo); in data set [3]) was 0% in each case. Moreover, the median effective dose (ED50) in data set [1] (setting [6]) worked out at 0.2 mg/kg; in the data set on rabbits, 0.145 mg/kg; in data set [3], 0.343 mg/kg. Moreover, the “RI (recovery index)” value in data set [1] (setting [7]) is 0.8 min; in the data set with rabbits, 0.45 min; in data set [3] it was 2 min. Further, the Onset in data set [1] (rat) turned out to be 0.7 min; with rabbits, 0.45 min; in data set [3], 0.54 min.
As for `C[N+]1(CC2CC2)[C@@H]2CC[C@H]1C[C@@H](OC(=O)CCCCCCC(=O)O[C@H]1C[C@H]3CC[C@@H](C1)[N+]3(C)CC1CC1)C2.[Br-].[Br-]` (stereo partly drawn) [bis[N-(cyclopropylmethyl)tropanium-3α-yl]suberate dibromide, reference compound], the ED50 in data set [2] (Felis catus, iv) was 0.155 mg/kg. For the same compound, in data set [2] (setting [9]), the “VB (vagal block)” value came to 80%, the “ΔBP (change in arterial blood pressure)” value amounted to 0% and the “ΔH (change in heart rate)” value turned out to be 0%. Also, in data set [2] (cat), the “RI (recovery index)” value is 9 min and the Onset came to 1.4 min.
`C[N+]1(C)[C@@H]2CC[C@H]1C[C@@H](OC(=O)CCCCCCCCC(=O)O[C@H]1C[C@H]3CC[C@@H](C1)[N+]3(C)C)C2.[I-].[I-]` [bis[N-methyltropanium-3α-yl]sebacate diiodide, reference compound] gave an ED50 in data set [2] (Felis catus, iv) of 0.125 mg/kg. Also, in data set [2] (setting [9]), the “VB (vagal block)” value worked out at 100%, the “ΔBP (change in arterial blood pressure)” value was determined as 0% and the “ΔH (change in heart rate)” value worked out at 0%. Besides, in data set [2] (cat), the “RI (recovery index)” value is 3.9 min and the Onset is 2.3 min.
